Results from US10392392B2, “Substituted imidazo[1,2-B]pyridazines as protein kinase inhibitors” (Tolero Pharmaceuticals, Inc., priority 2011, dated 2019).

Key:
[1] = test system: 22RV1/PIM-1 xenografts; test: 22RV1/PIM-1 over-expression tumor xenograft; format: in vivo, mouse; details: mice bearing 22RV1 or 22RV1/PIM-1 xenografts
Excerpt: (§1) Male and female Nu/Nu mice were purchased from Harlan Sprague Dawley (Indianapolis, Ind.). Female Nu/Nu mice were used for all xenograft evaluations with the exception of the PC-3 xenografts where male Nu/Nu mice were used. Cell lines were expanded in vitro in complete media, and if adherent were harvested by trypsin-EDTA, centrifuged and resuspended in PBS 1:1 with Matrigel (BD Bioscienes). Cells were inoculated subcutaneously in the right hind flank of mice. When tumors reached 100-200 mm^3 by caliper measurement, mice were randomized and dosing of SGI-9481 or vehicle control began and continued every day for 5 days (QD×5) with 2 days off for 18-21 days. Tumor volumes and body weights were determined twice a week, and tumor weights were measured at the completion of the translational xenograft studies.
(§2) The prostate cancer cell line 22RV1 engineered to over-express PIM-1 as previously described (Mumenthaler, et al, Mol. Cancer Ther., 2009, 8(10)2882-93) was evaluated in vivo. A second model engineered to over-express PIM-2 was established using the NIH-3T3 mouse fibroblast cell line.

[2] = test system: NIH-3T3/PIM-2 xenografts; test: NIH-3T3/PIM-2 over-expression tumor xenograft; format: in vivo, mouse; details: mice bearing NIH-3T3 or NIH-3T3/PIM-2 xenografts
Excerpt: as §1, §2

[3] = test system: UM-UC-3 cells; test: Colony formation assay, UM-UC-3; format: cell-based
Procedure: (§3) For shRNA growth experiments, 500 UM-UC-3 cells were seeded in a 12-well plate 48 hours post-transduction and cultured for 8-10 days at 37° C. in 5% CO2. Cells were fixed with 4% paraformaldehyde in PBS, washed twice with PBS, and stained with a crystal violet solution (1% crystal violet, 10% ethanol in water). Stained cells were washed thrice with water, and imaged after drying on a GelCount colony counter (Oxford Optronix Ltd., Oxford, UK). Total staining intensity per well was determined by lysis of cells with 200 μl of Triton X-100 lysis buffer (1% Triton X-100, 50 mM Tris-HCl pH 7.4, 150 mM NaCl, 1 mM EDTA). Lysates (100 μl) from each well were transferred to a clear 96-well plate and absorbance at 560 nm was determined on an Envision microplate reader. IC50 values were determined using GraphPad Prism software. For compound treated PC-3 and UM-UC-3, cells were seeded and stained as above, but were incubated with various concentrations of test compound or DMSO one day after seeding.
(§4) Translational models were also explored for PIM dependency using shRNA knockdown. The UM-UC-3 urinary epithelial bladder carcinoma cell line was used to verify and validate dependency on PIM-1 for growth. […] Reduction of PIM-1 mRNA and growth also were observed using both PIM-1 and PIM-2 shRNA in the androgen-independent prostate carcinoma cell line PC-3 (data not shown).

[4] = test system: PC-3 cells; test: Colony formation assay, PC-3; format: cell-based
Procedure: as §3, §4

[5] = test system: UM-UC-3 xenograft tumors; test: Established UM-UC-3 mouse xenograft tumors; format: in vivo; details: oral dosing of 200 mg/kg
Excerpt: as §1, with “When tumors reached 100-200 mm^3 by caliper measurement, mice were randomized and dosing of SGI-9481 or vehicle control began and continued every day for 5 days (QD×5) with 2 days off for 18-21 days.” left out

[6] = test system: PC-3 xenograft tumors; test: Established PC-3 mouse xenograft tumors; format: in vivo; details: oral dosing of 200 mg/kg
Excerpt: as §1, with “When tumors reached 100-200 mm^3 by caliper measurement, mice were randomized and dosing of SGI-9481 or vehicle control began and continued every day for 5 days (QD×5) with 2 days off for 18-21 days.” left out

[7] = test system: ML-2 cells (wild-type FLT3) xenografts; test: ML-2 (wild-type FLT3) mouse xenograft; format: in vivo
Excerpt: as §1

[8] = Pharmacokinetic studies of PC-3 tumor-burdened mice; format: in vivo, mouse; details: 200 mg/kg dosing
[9] = test system: MV-4-11; test: In vitro viability assay, MV-4-11; format: cell-based
Procedure: (§5) Adherent or suspension cancer cell lines were seeded at 2000-5000 cells/well in a 96-well plate, or 1000-2000 cells/well in a 384-well plate. Suspension cells were treated with drug the same day as seeding, while adherent cells were incubated overnight at 37° C. in 5% CO2 prior to drug treatment. All cells were treated for 72 hours, then lysed with ATPlite (Perkin Elmer) and measured on an Envision microplate reader. IC50 values were determined using GraphPad Prism software.
(§6) Over 35 cell lines were tested, and the most sensitive cell lines from various indications were selected and verified by multiple EC50 determinations (FIG. 6). […] Anti-proliferative activity using PIM-2 shRNA against FLT3-ITD driven leukemia lines has been observed (Adam (2006) Cancer Res 66:3828-35 data not shown).

[10] = test system: MOLM-13; test: In vitro viability assay, MOLM-13; format: cell-based
Procedure: as §5, §6

CC(C)(O)[C@H]1CC[C@H](Nc2ccc3ncc(-c4cccc(C(F)(F)F)c4)n3n2)CC1 [Compound 8-31]
changes in body weight [1]: No significant changes
changes in body weight [2]: No significant changes
colony growth [3]: reduced
colony growth [4]: reduced
changes in body weight or gross adverse toxicity [5]: no significant changes
tumor growth measured by volume (caliper) and by final tumor weight [5]: significantly reduced
changes in body weight or gross adverse toxicity [6]: no significant changes
tumor growth measured by volume (caliper) and by final tumor weight [6]: significantly reduced
tumor growth [7]: significant tumor growth inhibition
plasma levels [8]: above the in vitro proliferation EC50
tumor tissue levels [8]: above the in vitro proliferation EC50

CC(C)(O)[C@H]1CC[C@H](Nc2ccc3ncc(-c4cccc(C(F)(F)F)c4)n3n2)CC1 [SGI-9481]
sensitivity of cell line [9]: particularly sensitive
sensitivity of cell line [10]: particularly sensitive
